# ChEMBL document CHEMBL1152289, “Antithyroid drug carbimazole and its analogues: synthesis and inhibition of peroxidase-catalyzed iodination of L-tyrosine” (J Med Chem, 2008)
# Biological target: Lactoperoxidase (Homo sapiens, UniProt P22079)
# Test: Inhibition of lactoperoxidase-catalyzed iodination of L-tyrosine assessed as 3,5-diiodo-L-tyrosine formation by HPLC
# Lactoperoxidase, sequence (P22079 whole entry): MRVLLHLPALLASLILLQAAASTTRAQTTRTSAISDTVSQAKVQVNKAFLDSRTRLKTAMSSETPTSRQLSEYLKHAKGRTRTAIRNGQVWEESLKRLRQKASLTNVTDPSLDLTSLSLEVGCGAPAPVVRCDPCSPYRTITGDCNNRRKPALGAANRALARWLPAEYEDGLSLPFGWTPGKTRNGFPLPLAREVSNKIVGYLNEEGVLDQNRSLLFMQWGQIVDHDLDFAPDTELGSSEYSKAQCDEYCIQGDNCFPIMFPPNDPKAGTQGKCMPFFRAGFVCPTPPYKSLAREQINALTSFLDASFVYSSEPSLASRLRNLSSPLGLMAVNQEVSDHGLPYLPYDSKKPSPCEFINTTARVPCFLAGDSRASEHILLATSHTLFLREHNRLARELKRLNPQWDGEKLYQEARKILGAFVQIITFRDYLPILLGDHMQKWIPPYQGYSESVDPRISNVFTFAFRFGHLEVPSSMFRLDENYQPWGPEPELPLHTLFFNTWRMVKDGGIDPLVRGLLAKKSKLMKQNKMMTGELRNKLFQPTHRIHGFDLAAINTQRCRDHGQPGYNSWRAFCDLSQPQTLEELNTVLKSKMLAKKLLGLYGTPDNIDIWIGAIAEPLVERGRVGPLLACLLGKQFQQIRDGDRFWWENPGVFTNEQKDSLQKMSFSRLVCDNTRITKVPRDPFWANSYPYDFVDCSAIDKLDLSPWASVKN
row,Structure (SMILES),IC50 [µM]
1,CCOC(=O)n1ccn(CC)c1=[Se],21.3
2,CCn1ccn(C(=O)OC)c1=S,19.6
3,CCn1ccn(C(=O)OC)c1=[Se],25.3
4,CCOC(=O)n1ccn(C)c1=[Se],10.1
5,COC(=O)n1ccn(C)c1=[Se],19.7
6,COC(=O)n1ccn(C)c1=S,10.7

# Now from value to molecule:
row,IC50 [µM],Structure (SMILES)
1,20.5,CCOC(=O)n1ccn(CC)c1=S
2,10.4,CCOC(=O)n1ccn(C)c1=S [CARBIMAZOLE]
3,11.8,Cn1cc[nH]c1=S [METHIMAZOLE]
